# Results published in patent US20240262847A1, “COVALENT RAS INHIBITORS AND USES THEREOF” (Revolution Medicines, Inc., priority 2021, published 2024).
# Target: T1, GDP-loaded K-Ras (1-169) G12D, C51S, C80L, C118S (Homo sapiens, UniProt P01116, C118S/C51S/C80L/G12D)
# T1 construct: GDP-loaded K-Ras (1-169) G12D, C51S, C80L, C118S
# Assay: K-Ras G12D(GDP) cross-linking assay (mass spectrometry, percent covalent modification)
# Format: binding
# Conditions: at 24 hours, room temperature
# Method: Protocol: K-Ras G12D(GDP) Cross-Linking Assay
# Note: While the Following Protocol Outlines the Procedure for K-Ras G12D(GDP), a Person of Skill in the Art May Substitute Other Ras Proteins, and May Also Substitute a Non-Hydrolyzable GTP Analog for GDP to Study GTP Bound Ras Protein.
# GDP-loaded K-Ras (1-169) G12D, C51S, C80L, C118S and GDP-loaded K-Ras (1-169) C51S, C80L, C118S were adjusted to 50 μM in K-Ras assay buffer (12.5 mM HEPES, 75 mM NaCl and 1 mM MgCl2 at pH 7.4). A 5 μL aliquot of each protein solution was added to each well of a 96-well microplate containing 40 μL of assay buffer. Initial compound stocks were prepared in DMSO at 100 times their final assay concentration. Compounds were then diluted 10-fold into K-Ras assay buffer to 10 times their final concentration. A 5 μL aliquot of each diluted compound solution was added to each protein solution in the 96-well microplate to initiate the reaction, which then proceeded at room temperature. Typical final compound concentrations were 2, 10, and 25 μM. At each time point, the reactions were analyzed immediately or quenched with 5 μL of a 5% formic acid solution and kept at 4° C. until analysis. Typical assay endpoints were 1, 6 and 24 h.
# Data collection took place on an Agilent 6230 TOF Mass Spectrometer. Complete reactions were injected onto a C4 reverse-phase column to separate protein from buffer components prior to entering the mass spectrometer. The proteins were eluted from the column by increasing acetonitrile fraction in the mobile phase and fed directly into the mass analyzer. Initial analysis of raw data took place on Agilent MassHunter BioConfirm software and consisted of deconvolution of multiple protein charge states with the maximum entropy algorithm, with a mass step of 1 Da. The heights of all deconvoluted protein masses were exported for further data analysis. The percent modification of each protein was then determined by calculating the peak height of the covalently modified K-Ras species as a percentage of the sum total of K-Ras protein peak height.
row,Compound,cross-linking to K-Ras G12D
1,"Oc1cc(-c2ncc3c(N4C[C@H]5CC[C@@H](C4)N5C[C@H]4CN4)nc(OC[C@@]45CCCN4C[C@H](F)C5)nc3c2F)c2c(F)cccc2c1 [Compound B3, 4-(4-((1R,5S)-8-(((R)-aziridin-2-yl)methyl)-3,8-diazabicyclo[3.2.1]octan-3-yl)-8-fluoro-2-(((2R,7aS)-2-fluorotetrahydro-1H-pyrrolizin-7a(5H)-yl)methoxy)pyrido[4,3-d]pyrimidin-7-yl)-5-fluoronaphthalen-2-ol]",greater than 0%

# Same assay, conditions: at times up to 24 hours, room temperature
row,Compound,cross-linking to K-Ras G12D
1,"O=C([C@H]1CN1)N1[C@@H]2CC[C@H]1CN(c1nc(OC[C@@]34CCCN3C[C@H](F)C4)nc3c(F)c(-c4cc(O)cc5cccc(F)c45)ncc13)C2 [Compound B1, ((R)-aziridin-2-yl)((1R,5S)-3-(8-fluoro-7-(8-fluoro-3-hydroxynaphthalen-1-yl)-2-(((2R,7aS)-2-fluorotetrahydro-1H-pyrrolizin-7a(5H)-yl)methoxy)pyrido[4,3-d]pyrimidin-4-yl)-3,8-diazabicyclo[3.2.1]octan-8-yl)methanone]",no cross-linking
2,"O=C([C@@H]1CN1)N1[C@@H]2CC[C@H]1CN(c1nc(OC[C@@]34CCCN3C[C@H](F)C4)nc3c(F)c(-c4cc(O)cc5cccc(F)c45)ncc13)C2 [Compound B2, ((S)-aziridin-2-yl)((1R,5S)-3-(8-fluoro-7-(8-fluoro-3-hydroxynaphthalen-1-yl)-2-(((2R,7aS)-2-fluorotetrahydro-1H-pyrrolizin-7a(5H)-yl)methoxy)pyrido[4,3-d]pyrimidin-4-yl)-3,8-diazabicyclo[3.2.1]octan-8-yl)methanone]",no cross-linking
3,"Oc1cc(-c2ncc3c(N4C[C@H]5CC[C@@H](C4)N5C[C@@H]4CN4)nc(OC[C@@]45CCCN4C[C@H](F)C5)nc3c2F)c2c(F)cccc2c1 [Compound B4, 4-(4-((1R,5S)-8-(((S)-aziridin-2-yl)methyl)-3,8-diazabicyclo[3.2.1]octan-3-yl)-8-fluoro-2-(((2R,7aS)-2-fluorotetrahydro-1H-pyrrolizin-7a(5H)-yl)methoxy)pyrido[4,3-d]pyrimidin-7-yl)-5-fluoronaphthalen-2-ol]",no cross-linking
4,"O=C([C@H]1CN1)N1C=C(c2ncc3c(N4C[C@H]5CC[C@@H](C4)N5)nc(OC[C@@]45CCCN4C[C@H](F)C5)nc3c2F)c2c(F)cccc2C1 [Compound B23, (4-(4-((1R,5S)-3,8-diazabicyclo[3.2.1]octan-3-yl)-8-fluoro-2-(((2R,7aS)-2-fluorotetrahydro-1H-pyrrolizin-7a(5H)-yl)methoxy)pyrido[4,3-d]pyrimidin-7-yl)-5-fluoroisoquinolin-2(1H)-yl)((R)-aziridin-2-yl)methanone]",no cross-linking
5,"O=C([C@@H]1CN1)N1C=C(c2ncc3c(N4C[C@H]5CC[C@@H](C4)N5)nc(OC[C@@]45CCCN4C[C@H](F)C5)nc3c2F)c2c(F)cccc2C1 [Compound B24, (4-(4-((1R,5S)-3,8-diazabicyclo[3.2.1]octan-3-yl)-8-fluoro-2-(((2R,7aS)-2-fluorotetrahydro-1H-pyrrolizin-7a(5H)-yl)methoxy)pyrido[4,3-d]pyrimidin-7-yl)-5-fluoroisoquinolin-2(1H)-yl)((S)-aziridin-2-yl)methanone]",no cross-linking
